Source: US8648100B2, “Roflumilast for the treatment of pulmonary hypertension” (Takeda GmbH, priority 2005, dated 2014)
Read-outs that look alike come from different tables or passages of the source.

What was measured:
Type in all cases: in vivo, adult male Wistar rats
[1] = system: chronic hypoxia-induced pulmonary arterial hypertension in rats; details: for PAP: mean ± SEM; for RV/LV + S: right ventricular hypertrophy index; for Muscularization: distal pulmonary arteries
Method: (§1) The objective of the pharmacological investigation was to characterize the effect of orally administered Roflumilast at 0.5 mg kg^−1 d^−1 and 1.5 mg kg^−1 d^−1 on the increase in mean PAP and RV/LV+S ratio as well as distal arteriolar muscularization triggered by chronic hypoxia or monocrotalin (MCT) in rats. Hypoxia- or MCT-induced pulmonary hypertension in rats represent widely accepted animal models to study the potential of investigative drugs to reverse chronic pulmonary hypertension based on pulmonary vascular remodelling. In the MCT setting Roflumilast was administered both in preventive and curative paradigms.
(§2) Experiments were performed with adult male Wistar rats (200-250 g) according to institutional guidelines abiding to national and international regulations.
Rats were exposed to chronic hypoxia (10% O2) in a ventilated chamber (500-liter volume, Flufrance, Cachan, France). To establish the hypoxic environment, the chamber was flushed with a mixture of room air and nitrogen, and the gas was recirculated. The environment within the chamber was monitored using an oxygen analyzer (Oxiquant M, EnviTeC—Wismar, Germany). Carbon dioxide was removed by self-indicating soda lime granules. Excess humidity was prevented by cooling of the recirculation circuit. The chamber temperature was maintained at 22-24° C. The chamber was opened every other day for 1 hour to clean the cages and replenish food and water supplies. Normoxic control rats were kept in the same room with identical light-dark cycle. Rats exposed to chronic hypoxia were randomly assigned to three groups (8-10 animals per group): the first group received Roflumilast at 0.5 mg kg^−1 d^−1, the second group received Roflumilast at 1.5 mg kg^−1 d^−1, the third group received vehicle (methocel). A group not exposed to hypoxia served as control. Roflumilast or vehicle were administered once daily by gavage over 15 days of exposure to hypoxia.
(§3) At the end of the treatment period rats were anaethesized with sodium pentobarbital (60 mg/kg, i.p.). A polyvinyl catheter was introduced into the right jugular vein and pushed through the right ventricle into the pulmonary artery. Another polyethylene catheter was inserted into the right carotid artery. After measurement of pulmonary (PAP) and systemic arterial pressures (SAP), the thorax was opened and the left lung immediately removed and frozen in liquid nitrogen. The heart was dissected and weighed for calculation of the right ventricular hypertrophy index (ratio of right ventricular free wall weight over sum of septum plus left ventricular free wall weight; RV/LV+S). The right lung was fixed in the distended state with formalin buffer. After routine processing and paraffin embedding, multiple sections from each lobe were stained with haemotoxylin and eosin. In each rat, 60 intraacinar arteries were analyzed and categorized as muscular (fully or partially) or nonmuscular to assess the degree of muscularization. In addition, intraacinar fully muscularized arteries were evaluated for measurements of medial wall thickness which was calculated and expressed as follows: index (%)=(External diameter−internal diameter)/External diameter×100%.
(§4) The data are expressed as means±SEM. A nonparametric Mann-Whitney test was used for comparisons between two groups. Comparisons of data at various times after MCT injection or of various treatment groups were performed using a nonparametric Kruskal-Wallis test followed by Dunn's test when significant. To compare the degree of pulmonary vessels muscularization between groups, we used a non parametric Mann-Whitney or a Kruskal-Wallis test after ordinal classification of the vessels as non muscular, partially muscular, or fully muscular.

[2] = system: monocrotaline (MCT)-induced pulmonary arterial hypertension in rats (curative approach); assay: Monocrotaline (MCT)-induced pulmonary hypertension in rats, curative approach (treatment day 21 to day 42)
Method: (§5) Rats were randomly assigned to three groups (8-10 animals in each group): two groups received Roflumilast 0.5 and 1.5 mg kg^−1 d^−1, respectively; and one group received vehicle. In the preventive treatment paradigm Roflumilast or vehicle were given once daily by gavage for 21 days starting immediately after a single subcutaneous injection of MCT (60 mg kg^−1). A group not receiving MCT served as control. In a curative approach rats were left untreated for 21 days following MCT (60 mg/kg s.c.) and than randomly divided into two groups, one received roflumilast (1.5 mg/kg/d) p.o. and the other vehicle, from day 21 to day 42.
as §3, §4
In a curative approach Roflumilast (1.5 mg/kg/d) p.o. or vehicle were administered beginning at day 21 following MCT i.e. when pulmonary vascular remodeling and consequently augmented PAP and right ventricular hypertrophy were manifest. After another 3 weeks (i.e. at day 42) PAP was measured and rats were sacrificed to assess RV/LV+S ratio and muscularization of distal pulmonary arteries.

[3] = system: monocrotaline (MCT)-induced pulmonary arterial hypertension in rats; assay: Monocrotaline (MCT)-induced pulmonary hypertension in rats, preventive treatment paradigm; details: for PAP: mean ± SEM; for Muscularization: distal pulmonary arteries; for RV/LV + S: right ventricular hypertrophy index
Method: as §1, §2, §5, §3, §4

[4] = Hypoxia 15 days + 0.5 mg/kg Roflumilast once daily by gavage
[5] = Hypoxia 15 days + 1.5 mg/kg Roflumilast once daily by gavage
[6] = Day 42, Roflumilast 1.5 mg/kg/d p.o. starting day 21 after MCT
[7] = MCT + 0.5 mg/kg Roflumilast for 21 days
[8] = MCT + 1.5 mg/kg Roflumilast for 21 days
[9] = conclusion for pulmonary hypertension triggered by hypoxia or monocrotaline in rats

Compound: O=C(Nc1c(Cl)cncc1Cl)c1ccc(OC(F)F)c(OCC2CC2)c1 [Roflumilast, 3-cyclopropyl-methoxy-4-difluoromethoxy-N-(3,5-dichloropyrid-4-yl)benzamide]
- PAP [1, 4]: 28 ± 1.8 mm Hg
- RV/LV + S [1, 4]: 37.8 ± 2.3%
- Muscularization ([1]; Hypoxia 15 days + 0.5 mg/kg Roflumilast): 31.8 ± 2%
- PAP [1, 5]: 25.5 ± 1.8 mm Hg
- RV/LV + S [1, 5]: 30.5 ± 0.8%
- Muscularization ([1]; Hypoxia 15 days + 1.5 mg/kg Roflumilast): 18.5 ± 2%
- PAP [2, 6]: 23.6 ± 0.7 mmHg
- RV/LV + S [2, 6]: 33.8 ± 0.9%
- Muscularization ([2]; Day 42, Roflumilast 1.5 mg/kg/d p.o. starting day 21 after MCT, distal pulmonary arteries): 36.4 ± 2.4%
- survival rate (animals alive at day 42) ([2]; Roflumilast 1.5 mg/kg/d from day 21, 17 of 24 rats, vehicle 54%): 71%
- reduction of the proportion of fully muscularized arterioles ([2]; at day 42, Roflumilast 1.5 mg/kg/d from day 21): > 50%
- Medial wall thickness index of the fully muscularized pulmonary arterioles ([2]; at day 42, Roflumilast 1.5 mg/kg/d from day 21, vehicle 52±4%): 18±2%
- ratio of completely obliterated arterioles ([2]; at day 42, Roflumilast 1.5 mg/kg/d from day 21, vehicle 66±3%): 30±5%
- PAP ([3]; MCT 60 mg/kg s.c. + 0.5 mg/kg Roflumilast once daily by gavage for 21 days): 29.3 ± 1.3 mm Hg
- PAP ([3]; MCT 60 mg/kg s.c. + 1.5 mg/kg Roflumilast once daily by gavage for 21 days): 21.4 ± 2.0 mm Hg
- Muscularization [3, 7]: 62.7 ± 5.4%
- RV/LV + S [3, 7]: 38.9 ± 1.6%
- Muscularization [3, 8]: 30.3 ± 8.2%
- RV/LV + S [3, 8]: 31.3 ± 1.8%
- heart rate [3, 9]: unaffected
- systemic arterial pressure [3, 9]: unaffected
